Experimental data taken from patent US20140137294A1, “GLUCOSINOLATE TRANSPORTER PROTEIN AND USES THEREOF” (UNIVERSITY OF COPENHAGEN, priority 2010, published 2014).

Columns and labels:
Type in all cases: cell-based
AtGTR1 [1] = biological target: T1, AtGTR1 (Arabidopsis thaliana, UniProt Q944G5); assay: Substrate-induced currents in voltage-clamped Xenopus oocytes expressing AtGTR1; conditions: 1 mM NO3−, AtGTR1
T1 construct: A library of Arabidopsis transporters available as full length cDNAs from the RIKEN bioresource center; expressed in transfected cells; host or cells: Xenopus oocytes injected with in vitro transcribed cRNA
T1 sequence (Q944G5 31-636 limits assumed): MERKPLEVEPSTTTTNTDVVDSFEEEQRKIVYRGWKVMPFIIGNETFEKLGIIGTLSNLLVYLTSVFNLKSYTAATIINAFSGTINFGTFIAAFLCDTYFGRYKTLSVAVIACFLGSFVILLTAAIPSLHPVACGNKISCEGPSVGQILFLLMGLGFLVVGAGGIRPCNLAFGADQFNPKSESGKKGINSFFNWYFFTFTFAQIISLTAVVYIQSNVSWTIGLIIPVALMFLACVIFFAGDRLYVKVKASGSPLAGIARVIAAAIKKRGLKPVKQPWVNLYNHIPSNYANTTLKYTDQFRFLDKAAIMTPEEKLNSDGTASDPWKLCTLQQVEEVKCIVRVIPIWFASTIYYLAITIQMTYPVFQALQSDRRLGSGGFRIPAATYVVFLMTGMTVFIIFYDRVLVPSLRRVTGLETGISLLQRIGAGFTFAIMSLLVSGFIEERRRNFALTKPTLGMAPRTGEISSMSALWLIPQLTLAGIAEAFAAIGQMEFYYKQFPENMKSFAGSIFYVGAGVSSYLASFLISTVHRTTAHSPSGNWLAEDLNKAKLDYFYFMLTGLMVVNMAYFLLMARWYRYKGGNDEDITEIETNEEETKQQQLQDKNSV

AtGTR2 = biological target: T2, AtGTR2 (Arabidopsis thaliana, UniProt Q9LV10); assay: Uptake of C14-labeled pOHBG in AtGTR2 expressing oocytes in presence of excess competitor; conditions: 50× excess unlabeled competitor, AtGTR2, pH 5
T2 construct: expressed in transfected cells; host or cells: Xenopus oocytes injected with in vitro transcribed cRNA (vector pNB1u)
T2 sequence (Q9LV10 1-616): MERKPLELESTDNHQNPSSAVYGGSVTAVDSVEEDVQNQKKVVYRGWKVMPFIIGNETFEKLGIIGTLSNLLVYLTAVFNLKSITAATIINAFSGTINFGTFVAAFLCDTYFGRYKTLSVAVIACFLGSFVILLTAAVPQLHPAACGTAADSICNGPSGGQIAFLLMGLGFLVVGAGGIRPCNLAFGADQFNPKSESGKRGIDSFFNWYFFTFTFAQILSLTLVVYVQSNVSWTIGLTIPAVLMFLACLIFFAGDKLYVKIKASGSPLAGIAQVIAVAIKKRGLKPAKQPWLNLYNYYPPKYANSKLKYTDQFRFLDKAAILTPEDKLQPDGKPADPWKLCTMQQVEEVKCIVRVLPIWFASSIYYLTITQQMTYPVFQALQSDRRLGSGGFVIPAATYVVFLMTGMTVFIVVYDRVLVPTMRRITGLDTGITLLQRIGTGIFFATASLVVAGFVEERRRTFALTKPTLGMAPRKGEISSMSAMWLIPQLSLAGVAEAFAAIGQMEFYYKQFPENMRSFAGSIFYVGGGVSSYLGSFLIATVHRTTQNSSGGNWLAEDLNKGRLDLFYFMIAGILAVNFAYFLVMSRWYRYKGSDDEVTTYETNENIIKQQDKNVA
Procedure: (§1) FIG. 3: Biochemical analysis of AtGTR1 and 2 mediated GSL transport in Xenopus oocytes. A and B, pH dependence of AtGTR-mediated GSL transport. A, AtGTR2 mediated 4-MTB uptake measured by LC-MS analysis of oocyte extracts, n=3 oocytes. B, AtGTR1 currents induced by 1 mM 4-MTB were measured at different membrane potentials at pH 5 ([…]), pH 6 (♦), and pH 7 (▴). Currents were normalized to the current induced at pH 5 at −60 mV, error bars are SD, n=4 oocytes. C and D, kinetic analysis of AtGTR-mediated glucosinolate transport. […]
(§2) The substrate specificity investigations were extended to include substrates previously identified for the NRT/PTR transporter family namely di- and tripeptides and nitrate. […] However, perfusing with 1 mM NO3^− did result in currents but these amounted only to 1/10th of currents measured when perfusing with 100 μM 4-MTB (FIG. 3F). […]
(§3) For assays with radiolabeled substrates, single oocytes were ruptured in 100 μl 10% SDS in 4 ml scintillation vials by shaking for 20-30 minutes. 2.5 ml EcoScint™ scintillation fluid (National Diagnostics) was added, and imported compounds quantified by scintillation counting. For assays with unlabeled substrates, oocyte extracts were analysed by LC-MS. Oocytes were analyzed in batches of 5 oocytes per repetition. […]

AtGTR1 [2] = biological target: T1, AtGTR1; assay: Uptake of C14-labeled pOHBG in AtGTR1 expressing oocytes in presence of excess competitor; conditions: 50× excess unlabeled competitor, AtGTR1, pH 5
Procedure: as §1, §2, §3

SMILES: O=[N+]([O-])O [NO3^−, nitrate]
- currents as fraction of currents with 100 μM 4-MTB (AtGTR1 [1]): 1/10
- effect on uptake of 40 μM C14-labeled pOHBG (AtGTR2): did not have significant inhibitory effects
- effect on uptake of 40 μM C14-labeled pOHBG (AtGTR1 [2]): did not have significant inhibitory effects
